Counter-ions that a name gives are not always drawn.
Key:
[1] = test system: MeWo human melanoma cells; assay: Subcutaneous MeWo tumor growth in immunocompromised mice; format: in vivo; conditions: oral
Description: (§1) FIG. 4. Therapeutic LXR Activation Inhibits Melanoma Tumor Growth. […] Representative tumor images shown correspond to tumors extracted at the final day (d12). n=10-18 (A), 8-10 (B). (C-E) Primary tumor growth by 1×10^6 MeWo (C), […] SK-Mel-334.2 (D), and 2×10^6 SK-Mel-2 (E) human melanoma cells subcutaneously injected into immunocompromised mice. […] Tumor images shown correspond to last day of measurements. n=6-34 (C), 8 (D), 5 (E). (F) 5×10^4 B16F10 cells were injected subcutaneously into C57BL/6-WT mice. Upon tumor growth to 150 mm^3, mice were fed continuously with a control chow or a chow containing GW3965 (150 mg/kg), and tumor growth was measured daily. n=6-13. […] Tumor volume was calculated as (small diameter)^2×(large diameter)/2. […] Scale bars, 5 mm (A-D), 50 μm (J, K), 25 μm (L).

[2] = test system: SK-Mel-334.2 primary human melanoma line; assay: Subcutaneous SK-Mel-334.2 tumor growth in immunocompromised mice; format: in vivo; conditions: oral
Description: as §1

ApoE promoter = ApoE promoter activity assay (luciferase, ME.1/ME.2); format: cell-based, human; conditions: 1 μM
From the text: FIG. 11. LXRβ Activation Suppresses Melanoma Invasion and Endothelial Recruitment by Transcriptionally Enhancing Melanoma-Cell ApoE Expression. […] Scale bar, 50 μm.
The ApoE promoter, consisting of a sequence spanning 980 base pairs upstream and 93 base pairs downstream of the ApoEgene, was cloned into a pGL3-Basic vector (E1751, Promega Corporation, Madison, Wis.) upstream of the firefly luciferase gene using NheI and SacI restriction enzymes. Then, multi-enhancer elements 1 (ME.1) and 2 (ME.2) were cloned directly upstream of the ApoE promoter using MluI and […] restriction enzymes. To assess ApoE promoter- and ME.1/ME.2-driven transcriptional activation by LXR agonists, 5×10^4 MeWo cells were seeded into a 24-well plate. […] To assess transcriptional activation by LXRα or LXRβ, 5×10^4 MeWo cells expressing a control shRNA or shRNA targeting LXRα or LXRβ were seeded into a 24-well plate. […] After 24 hours, cells were lysed, and cell lysate was analyzed for firefly and renilla luciferase activity using the Dual Luciferase Assay System (E1960, Promega) and a Bio-Tek Synergy NEO Microplate Reader. Firefly luciferase signal was normalized to renilla luciferase signal and all data are expressed relative to the luciferase activity ratio measured in the DMSO-treated control cells.

[3] = test system: B16F10 parental and DTIC-resistant cells; assay: Tumor growth by DTIC-sensitive and DTIC-resistant B16F10 cells; format: in vivo, mouse; conditions: chow 100 mg/kg
Description: Dacarbazine-resistant B16F10 mouse melanoma cells were generated by continuously culturing the cells in the presence of DTIC (D2390, Sigma-Aldrich, St. Louis, Mo.). First, the cells were treated with 500 μg/mL DTIC for one week. Following this initial DTIC treatment, the remaining (˜10%) viable cells were allowed to recover for one week, after which 750 μg/mL of DTIC was added to the cell media for 5 days. Subsequent to this high-dose treatment, the cells were allowed to recover in the presence of low-dose DTIC (100 μg/mL) for one week. The cells were then continuously cultured in cell media containing 200 μg/mL DTIC for at least one month prior to grafting the cells into mice. DTIC was added to fresh cancer cell media every 3 days. For tumor growth experiments, 5×10^4 B16F10 parental and DTIC-resistant cells were subcutaneously injected into the lower flank of 7-week-old C57BL/6 mice.

[4] = test system: DTIC-resistant MeWo human melanoma cells; conditions: oral, diet 100 mg/kg
Description: Tumor growth was measured twice a week.

[5] = test system: B16F10 mouse melanoma cells; assay: B16F10 tumor growth and metastasis with LXR or ApoE knockdown or knockout; format: in vivo
Description: FIG. 12. Therapeutic Delivery of LXR Agonists Upregulates Melanoma-Derived and Systemic ApoE Expression. (A-B) ApoE expression levels, quantified by qRT-PCR, in subcutaneous tumors formed by B16F10 mouse melanoma cells injected into C57BL/6 mice. After 5-mm^3 tumor formation, mice were fed a control diet or diet containing GW3965 (20 mg/kg) (A) or T0901317 (20 mg/kg) (B) for 7 days. n=3-4. (C-E) ApoEtranscript expression in primary tumors (C), lung metastases (D), and brain metastases (E) formed by MeWo human melanoma cells grafted onto NOD Scid mice that were administered control chow or chow supplemented with GW3965 (20 mg/kg). ApoE levels were assessed on day 35 (C), day 153 (D), and day 34 (E) post-injection of the cancer cells. n=3-5. (F) Relative expression levels of LXRα, LXRβ, and ApoE were determined by qRT-PCR in B16F10 mouse melanoma cells expressing a control hairpin or an shRNA targeting mouse LXRα (sh_mLXRα), mouse LXRβ (sh_mLXRβ), or mouse ApoE (sh_mApoE). (G-H) ApoE (G) and ABCA1(H) mRNA levels, measured by qRT-PCR, in B16F10 cells expressing a control shRNA or shRNAs targeting mouse LXRβ or mouse ApoE. The cells were treated with DMSO or GW3965 at 5 μM for 48 hours. n=3. (I) ABCA1 mRNA levels, measured by qRT-PCR, in systemic white blood cells extracted from LXRα −/− or LXRβ −/− mice fed a control diet or a GW3965-supplemented diet (20 mg/kg) for 10 days. n=3-4. (J) Relative expression of ApoE mRNA, expressed as the frequency of SAGE tags, in mouse skin and lung tissues was determined using the public mSAGE Expression Matrix database available through the NCI-funded Cancer Genome Anatomy Project (CGAP). (K) Relative expression of ApoE mRNA, determined by qRT-PCR, in MeWo melanoma cells dissociated from lung metastatic nodules (LM2) or primary tumors relative to control unselected MeWo parental cells. n=3.
FIG. 13. LXRβ Agonism Suppresses Melanoma Tumor Growth and Metastasis by Inducing Melanoma-Derived and Systemic ApoE Expression. […] (B) Quantification of ApoE protein expression based on western blots shown in (A). […] Representative tumor images extracted at the end point are shown in the right panel. n=6-18. (E) ApoE transcript levels, quantified by qRT-PCR, in systemic white blood cells extracted from LXRα −/− or LXRβ −/− mice fed a control diet or a GW3965-supplemented diet (20 mg/kg) for 10 days. n=3-5. (F) Subcutaneous tumor growth by 5×10^4 B16F10 control cells or B16F10 cells expressing an shRNA targeting mouse ApoE (sh_mApoE) in C57BL/6-WT or ApoE−/− mice. […] Representative images of tumors extracted at the final day of measurement (d12) are shown on the right. n=8-18. (G) Lung colonization by 5×10^4 B16F10 cells transduced with a control shRNA or sh_mApoE and intravenously injected into C57BL/6-WT or ApoE−/− mice. […] Lung metastasis was quantified on d22 by bioluminescence imaging. Representative lungs extracted at the end point (d22) are shown in the right panel. n=5-10. (H) ApoE protein expression, determined by blinded immunohistochemical analysis, in non-metastatic (n=39) and metastatic (n=34) primary melanoma skin lesion samples obtained from patients at MSKCC. The fraction of ApoE-positively staining cell area was quantified as a percentage of total tumor area.

[6] = test system: SK-Mel-239 vemurafenib-resistant clone cells; conditions: diet 100 mg/kg

## O=C(O)Cc1cccc(OCCCN(Cc2cccc(C(F)(F)F)c2Cl)CC(c2ccccc2)c2ccccc2)c1 [GW3965 108, 3-[3-[N-(2-Chloro-3-trifluoromethylbenzyl)-(2,2-diphenylethyl)amino]propyloxy] phenylacetic acid hydrochloride]
[1]
  inhibition of tumor growth, MeWo: 70%
[2]
  inhibition of tumor growth, SK-Mel-334.2: 73%
ApoE promoter
  ability to upregulate ApoE transcription and protein expression upon melanoma cell depletion of LXRβ, but not LXRα: abrogated
[3]
  suppression of tumor growth by the DTIC-resistant B16F10 melanoma clone: more than 70%
[4]
  growth of in vivo-derived DTIC-resistant human melanoma tumors (MeWo): strongly inhibited
[5]; ApoE−/− mice, diet 20 mg/kg
  metastasis suppression upon genetic inactivation of ApoE: only partially prevented
  suppressing tumor growth in mice genetically inactivated for ApoE: completely ineffective
[5]; B16F10 cells, 5 μM, 48 hours
  induction of ApoE expression upon knockdown of mouse melanoma-cell LXRβ: abrogated
[5]; diet 20 mg/kg
  inhibition of metastasis with both melanoma-cell ApoE knockdown and genetic inactivation of systemic ApoE: completely blocked
[5]; diet 20 mg/kg, 7 days
  suppression of tumor growth with melanoma-cell LXRβ knockdown: unable to prevent
  tumor growth inhibition upon depletion of melanoma-cell ApoE: did not prevent
[5]; lung colonization, diet 20 mg/kg
  metastasis-suppressive effect upon knockdown of melanoma-cell ApoE: partially prevented
[5]; white blood cells, diet 20 mg/kg, 10 days
  upregulation of systemic ApoE expression in LXR null mice: abrogated in LXRβ −/−, but not in LXRα −/− mice
[6]
  suppression of growth of the SK-Mel-239 vemurafenib-resistant line: 72%

Source: patent US20190125745A1, “TREATMENT AND DIAGNOSIS OF CANCER” (Rgenix, Inc., priority 2014, published 2019)
